The METLIN SMRT retention time set (Domingo-Almenara et al. 2019)

Test: gradient 5% acetonitrile 3 min, to 50% in 2 min, to 85% in 15 min, held 3 min, 100 µL/min
Settings: column: Zorbax Extend-C18 2.1 x 50 mm; eluents: water / acetonitrile, 0.1% formic acid
Outline: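 Using water and acetonitrile that each contained 0.1% formic acid, mixtures of ~100 pure standards were separated at 100 μL/min on a Zorbax Extend-C18 column (2.1 × 50 mm, 1.8 μm). The HPLC fed a quadrupole time-of-flight mass spectrometer working in positive and negative ionization mode, with dead and dwell volumes of 40 μL and 900 μL. Data were acquired over 3 months. Retention time was read from computationally picked adduct peaks after manual inspection of each.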

Structure (SMILES) | RP-LC retention time
CCc1noc(NC(C)=O)c1-c1ccc(C)c(S(=O)(=O)Nc2ccccc2F)c1 | 798 s
Cc1ccc2nc(C)c(NC(=O)c3ccccc3C(F)(F)F)c(=O)n2c1 | 620 s
CCOC(=O)C1CCN(C(=O)c2nc(N3CCCCC3)c3c(C)cc(C)nc3n2)CC1 | 595 s
CCN(CC)C(=O)Cn1cc(C(=O)C(=O)N(C)Cc2ccccc2)c2ccccc21 | 890 s
O=C(Cn1nc2n(c1=O)CCCC2)Nc1ccc(C(F)(F)F)cc1 | 716 s
COc1ccc(-n2c(=O)c3sccc3n(Cc3nc(-c4ccccc4Cl)no3)c2=O)cc1 | 946 s
Clc1ccccc1N1CCN(c2ncnc3[nH]ncc23)CC1 | 660 s
CC1=C(c2ccc(F)cc2)S(=O)(=O)N=C1N1CCC(NC(=O)c2ccoc2)CC1 | 747 s
O=C(Nc1cnc2ccccc2c1)N(c1ccccc1)c1ccccc1 | 754 s
CC(C)Cn1c(-c2cccc(C(=O)NC(C)C)c2)nc2cccnc21 | 763 s
CCN1C(=O)c2cc(S(=O)(=O)Nc3ccc(Cl)cc3F)ccc2Oc2cccnc21 | 1070 s
CCc1cccc(NC(=O)c2c(C)oc3c2C2=NC(CC)CN2C=N3)c1 (stereo unspecified) | 698 s
Cc1ccc2nc3c(c(C(=O)NC(C)C)c2c1)CCC3 | 610 s
O=C(CSc1nnc2c3sc(N4CCCC4)nc3ncn12)NC1CCCCC1 | 767 s
Cc1cc(C)c(C)c(S(=O)(=O)N(C)C)c1C | 939 s
COc1ccccc1CNC(=O)C1CCCN(c2ncnc3c2oc2ccccc23)C1 (stereo unspecified) | 746 s
CC(C)c1ccc2c(c1)-c1ccccc1S(=O)(=O)N2CC(=O)NCCN1CCOCC1 | 692 s
CC(=O)Nc1ccc(NC(=O)CN2C(=O)C3CCCCN3C(=O)c3ccccc32)cc1 (stereo unspecified) | 651 s
Cc1onc(C(=O)N2CCc3c(c(-c4nncn4C)nn3C)C2)c1Cn1cc(Cl)cn1 | 649 s
CCn1nccc1-c1cccc(-c2noc(C3CC(=O)N(c4ccc(C)cc4)C3)n2)c1 (stereo unspecified) | 1010 s
CCn1cc(-c2ccc(Cl)cc2)cc1C(=O)NCc1ccccn1 | 790 s
CSc1ccc(-c2nc3cnccn3c2Nc2cc(C)cc(C)c2)cc1 | 1070 s

Structure (SMILES) | RP-LC retention time
CCc1noc(NC(C)=O)c1-c1ccc(OC)c(S(=O)(=O)Nc2ccc3c(c2)OCCO3)c1 | 736 s
COC(=O)c1cc(C2CC2)nc2c1c(=O)n(Cc1cccc(F)c1)c(=O)n2C | 1130 s
COc1cccc(-n2nnc(-c3nc(-c4ccccc4OC)cs3)c2N)c1 | 1120 s
Cn1nc(-c2nc(C3CC3)no2)c2c1CCN(C(=O)c1cc3c(s1)CCCC3)C2 | 1010 s
CCOC(=O)c1noc2ncnc(Nc3ccc(CC)cc3)c12 | 1060 s
Cn1nc(C(=O)N2CCCC2)c2c1CCN(C(=O)Nc1ccccc1Br)C2 | 737 s
Cc1cc(C)c(NC(=O)Cn2cnc3nc(N4CCC(C(=O)NC5CC5)CC4)sc3c2=O)c(C)c1 | 754 s
CCN1CCCCc2cc(C(=O)NCCN3CCCCC3C)sc21 (stereo unspecified) | 698 s
CCCCS(=O)(=O)N1CCN(c2nc(N3CCOCC3)nc(-n3ccnc3)n2)CC1 | 604 s
CCOc1ccc(-c2noc(CN3C(=O)COc4ccccc43)n2)cc1 | 1030 s
CC(=O)N1c2ccc(S(=O)(=O)N3CCCCCC3)cc2CC1C(=O)NCCCc1ccccc1 (stereo unspecified) | 975 s
O=C(Cc1ccccc1Cl)N1CCN(c2cc(-c3ccccc3)[nH]n2)CC1 | 828 s
Cc1ccc2c(c1)C(=O)NC1(CCN(C(=O)Cc3ccc(Cl)cc3)CC1)N2C | 850 s
CCn1c(C(=O)NCc2ccccc2OC)cc2sc(Cl)cc21 | 1130 s
CC1CCCCN1CCNC(=O)c1nnc(-c2ccc(S(=O)(=O)N(C)C)cc2)o1 (stereo unspecified) | 620 s
COc1ccccc1N1CCN(CCN(C(=O)c2ccc(F)cc2)c2ccccn2)CC1 | 792 s
CC(C)Oc1ccc(C(=O)N2CCC3(CC2)C(=O)N(C)c2ccccc23)cc1 | 930 s
COc1ccc(S(=O)(=O)N2CCC(c3nc(C(=O)N4CCCC4)c(C)o3)CC2)cc1 | 871 s
COc1ccccc1OCCNc1nc2ccncc2n(C(C)C)c1=O | 573 s
CN(C)[C@@H]1CN(C(=O)CCc2nc3ccc(Cl)cc3[nH]2)C[C@H]1CO | 529 s
CNC(=O)C1CCN(c2nc3ccc(-c4ccc(OC)cc4)nc3s2)CC1 | 771 s
O=C(Nc1ccc(-c2nnc3n2CCCC3)cc1)c1cc(C2CC2)[nH]n1 | 625 s

Structure (SMILES) | RP-LC retention time
CC1CNc2c(cccc2S(=O)(=O)N[C@@H](CCCN=C(N)N)C(=O)N2CC[C@@H](C)C[C@@H]2C(=O)O)C1 (stereo partly specified) | 822 s
CC(C)c1noc(C2(NC(=O)c3ccccc3F)CCCCC2)n1 | 1020 s
CCOC(=O)CNC(=O)NCCc1nc2cccnc2n1Cc1ccccc1 | 648 s
CCOC(=O)c1ccc(NC(=O)CCc2ccc3nc(CC)[nH]c3c2)cc1 | 646 s
CCOCCCNC(=O)COc1nc(C)nc2onc(-c3ccccc3)c12 | 846 s
COc1ccccc1-c1nc(-c2ccc3nnn(C)c3c2)no1 | 923 s
COCC(=O)N(C1CCOCC1)C1CCN(S(=O)(=O)c2ccc(F)c(F)c2)CC1 | 788 s
Cn1cc(S(=O)(=O)N2CCC(C(=O)NC3CCCC3)CC2)cc1C(=O)N1CCCCC1 | 732 s
CCC1Oc2ccc(S(=O)(=O)N3CCC(C(=O)NCc4cccc(C)c4)CC3)cc2NC1=O (stereo unspecified) | 893 s
Cc1noc(-c2cccnc2SCC(=O)Nc2cccc(Br)c2)n1 | 895 s
O=C(c1ccc(F)c(Cl)c1)N1CCCC1c1nc(-c2ccccc2)no1 (stereo unspecified) | 1040 s
Cn1nc(-c2nnc(-c3ccccc3)o2)c2c1CCN(S(=O)(=O)c1ccc(Cl)cc1)C2 | 992 s
Cc1cc(S(=O)(=O)N2CCC(n3c(-c4ccoc4)nc4cccnc43)C2)ccc1F (stereo unspecified) | 827 s
CCc1ccc(S(=O)(=O)Nc2cccc(-c3nc4cccnc4s3)c2C)s1 | 942 s
COc1ccc(Cl)cc1N1CC(c2nc(-c3ccc4c(c3)OCO4)no2)CC1=O (stereo unspecified) | 941 s
COc1cccc(-c2nc(Cn3ccnc3)no2)c1 | 601 s
CCOC(=O)CN1CC2=C(C1=O)C(c1ccc(OC)cc1)NC(=O)N2 (stereo unspecified) | 618 s
COc1ccc(C)cc1NS(=O)(=O)c1ccc2c(c1)CCCC(=O)N2 | 709 s
O=C(c1ccc2c(c1)N(Cc1ccccc1)C(=O)CO2)N1CCc2ccccc21 | 980 s
NC(=O)C1(c2ccccc2F)CC1 | 681 s
O=c1n(Cc2ccc(F)cc2)nc2ccc(S(=O)(=O)N3CCCC3)cn12 | 855 s
COc1cc(Cl)c(C)cc1NC(=O)CSc1ccc(N2CCCC(C(=O)NC3CC3)C2)nn1 (stereo unspecified) | 774 s
